Like-named read-outs stand apart in the source and are kept apart here.

Here are results for five molecules from paper PMC7252619 (PLoS ONE, 2020).

The test system of series [1] is human PBMCs (responder cells) with RPMI1788 stimulator cells. The experiment in a line: Mixed Lymphocyte Reaction (MLR, T cell assay), 3H-thymidine incorporation. It is filed as cell-based. The conditions noted are these: for Selectivity Index (SI) MLR/B-cell: ratio of IC50 values. (In general: Incorporation of labelled thymidine or its analogues reports DNA synthesis.)

Series [2] can be described thus: WST-1 cytotoxicity assay on RPMI1788 cells (B-cell line). The format is cell-based, human. As to conditions: human, RPMI1788 cells (B-cell line), mean of 4 independent measures, read-out: Cytotoxicity, WST-1 RPMI 1788 IC 50 (µM) Mean. A general note: Tetrazolium assays rely on reduction of a dye to a coloured formazan, in cell work by metabolically active cells.
Series [3] in a line: WST-1 cytotoxicity assay on Jurkat cells (T-cell line). It is filed as cell-based, human. As to conditions: human, Jurkat cells (T-cell line), mean of 4 independent measures, read-out: Cytotoxicity, WST-1 Jurkat IC 50 (µM) Mean.
The subject of another series is human CD19+ B cells. The experiment in a line: B-cell assay: IgG production of ODN2006-stimulated primary B cells (AlphaLISA). The format is cell-based. (Alpha assays give light when donor and acceptor beads are brought close together.)
The target in series [4] is T1, VEGFR2 (Homo sapiens, UniProt P35968). The experiment in a line: KINOMEscan competition binding assay, dose response.
The target of series [5] is T1, VEGFR2. The experiment in a line: Kinase activity test (ReactionBiology), % enzyme activity relative to DMSO. The format is biochemical. On the set-up: purchased ReactionBiology. The conditions noted are these: VEGFR2.
A further series has as its system RPMI1788 cells. The experiment in a line: WST-1 cytotoxicity assay on RPMI1788 cells (B-cell line). As to conditions: 48 h; mean of 4 independent measures; read-out: Cytotoxicity, WST-1 RPMI 1788 IC 50 (µM) Mean. The format is cell-based, human.
The subject of the next series is Jurkat cells. Put plainly: WST-1 cytotoxicity assay on Jurkat cells (T-cell line). The format is cell-based, human. As to conditions: 48 h; mean of 4 independent measures; read-out: Cytotoxicity, WST-1 Jurkat IC 50 (µM) Mean.
For another series, the target named is T2, MLK4 (Homo sapiens, UniProt Q5TCX8).
T2 construct: purchased ReactionBiology
It is filed as biochemical. As to conditions: for % Enzyme Activity (relative to DMSO controls), Data 1: replicate Data 1; for % Enzyme Activity (relative to DMSO controls), Data 2: replicate Data 2.

Another series deals with T3, EPHB4 (Homo sapiens, UniProt P54760).
T3 construct: purchased ReactionBiology
T3 sequence (P54760 16-987): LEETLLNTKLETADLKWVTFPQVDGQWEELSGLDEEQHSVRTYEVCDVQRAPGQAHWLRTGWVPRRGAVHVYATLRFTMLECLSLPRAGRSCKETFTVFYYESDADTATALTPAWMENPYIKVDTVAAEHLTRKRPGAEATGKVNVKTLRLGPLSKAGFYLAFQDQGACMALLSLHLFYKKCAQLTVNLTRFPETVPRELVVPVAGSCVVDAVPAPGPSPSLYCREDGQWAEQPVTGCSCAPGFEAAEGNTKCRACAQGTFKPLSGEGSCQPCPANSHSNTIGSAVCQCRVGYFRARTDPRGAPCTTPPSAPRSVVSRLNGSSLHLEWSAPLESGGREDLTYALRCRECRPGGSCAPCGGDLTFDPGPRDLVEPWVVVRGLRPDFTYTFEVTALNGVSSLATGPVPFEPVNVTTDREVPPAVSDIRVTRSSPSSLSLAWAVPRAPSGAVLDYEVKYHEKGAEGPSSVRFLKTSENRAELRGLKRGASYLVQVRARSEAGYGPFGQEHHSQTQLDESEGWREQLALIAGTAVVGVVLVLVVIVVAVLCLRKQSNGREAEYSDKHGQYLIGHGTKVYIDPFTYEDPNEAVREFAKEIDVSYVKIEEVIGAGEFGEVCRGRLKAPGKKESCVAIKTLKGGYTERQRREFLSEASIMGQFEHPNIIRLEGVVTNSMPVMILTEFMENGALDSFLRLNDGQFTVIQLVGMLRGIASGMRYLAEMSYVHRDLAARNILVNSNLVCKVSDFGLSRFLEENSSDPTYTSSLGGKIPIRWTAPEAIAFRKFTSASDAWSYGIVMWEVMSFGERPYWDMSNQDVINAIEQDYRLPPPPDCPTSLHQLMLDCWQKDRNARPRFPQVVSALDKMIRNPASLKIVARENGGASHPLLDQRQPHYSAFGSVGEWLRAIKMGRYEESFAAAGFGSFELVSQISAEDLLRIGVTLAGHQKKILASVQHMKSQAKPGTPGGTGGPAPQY
The experiment in a line: Kinase activity test (ReactionBiology), % enzyme activity relative to DMSO. It is filed as biochemical. As to conditions: EPHB4.

A further series addresses T4, CDC7 (Homo sapiens, UniProt O00311).
T4 construct: purchased ReactionBiology
The description is as above. It is filed as biochemical.

A further series deals with T5, NEK2 (Homo sapiens, UniProt P51955).
T5 construct: purchased ReactionBiology
T5 sequence (P51955 1-445): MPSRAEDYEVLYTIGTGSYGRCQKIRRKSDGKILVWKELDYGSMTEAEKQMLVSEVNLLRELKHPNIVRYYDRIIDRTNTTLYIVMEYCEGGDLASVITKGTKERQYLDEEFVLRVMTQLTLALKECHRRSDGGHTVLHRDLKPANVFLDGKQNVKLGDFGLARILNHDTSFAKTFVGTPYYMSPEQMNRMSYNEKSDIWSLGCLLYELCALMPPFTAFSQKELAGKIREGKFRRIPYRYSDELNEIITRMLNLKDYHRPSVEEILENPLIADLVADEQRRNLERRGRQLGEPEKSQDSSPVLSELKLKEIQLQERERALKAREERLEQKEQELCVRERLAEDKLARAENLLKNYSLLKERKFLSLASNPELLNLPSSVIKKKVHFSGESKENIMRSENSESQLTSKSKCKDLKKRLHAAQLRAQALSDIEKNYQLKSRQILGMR
The description is as above. The format is biochemical.

A further series has as its target T6, CK1d (Homo sapiens, UniProt P48730).
T6 construct: purchased ReactionBiology
The description is as above. The format is biochemical. The conditions noted are these: CK1d.

For the next series, the target named is T7, MAP2K2 (Homo sapiens, UniProt P36507).
T7 construct: purchased ReactionBiology
The series is described as above. The format is biochemical.

The mark [6] stands for this setting: Homo sapiens, B-cell, 168 h, IgG production, ODN2006 0.1 μM, 7 days, mean of 4 independent experiments, read-out: B-cell IC50.
Where [7] appears, read: 1 uM, Average, read-out: % Enzyme Activity (relative to DMSO controls), Average.
[8] abbreviates: 1 uM, replicate Data 1, read-out: % Enzyme Activity (relative to DMSO controls), Data 1.
Setting [9] is: 1 uM, replicate Data 2, read-out: % Enzyme Activity (relative to DMSO controls), Data 2.
Setting [10] is: 10 uM, Average, read-out: % Enzyme Activity (relative to DMSO controls), Average.
Where [11] appears, read: 10 uM, replicate Data 1, read-out: % Enzyme Activity (relative to DMSO controls), Data 1.
The mark [12] stands for this setting: 10 uM, replicate Data 2, read-out: % Enzyme Activity (relative to DMSO controls), Data 2.
Where [13] appears, read: Average, read-out: % Enzyme Activity (relative to DMSO controls), Average.
[14] abbreviates: replicate Data 1, read-out: % Enzyme Activity (relative to DMSO controls), Data 1.
[15] abbreviates: replicate Data 2, read-out: % Enzyme Activity (relative to DMSO controls), Data 2.
The mark [16] stands for this setting: read-out: % Enzyme Activity (relative to DMSO controls), Average.
Setting [17] is: read-out: % Enzyme Activity (relative to DMSO controls), Data 1.
[18] abbreviates: read-out: % Enzyme Activity (relative to DMSO controls), Data 2.
[19] abbreviates: read-out: % Enzyme activity at 1μM.
The mark [20] stands for this setting: read-out: % Enzyme activity at 10μM.
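For % Enzyme activity at 10μM in this document: VEGFR2 was one member of a ten-kinase screening panel testing marketed FDA-approved drugs.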
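For % Enzyme activity at 1μM in this document: VEGFR2 was one member of a ten-kinase screening panel testing marketed FDA-approved drugs.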

T4 sequence (O00311 whole entry): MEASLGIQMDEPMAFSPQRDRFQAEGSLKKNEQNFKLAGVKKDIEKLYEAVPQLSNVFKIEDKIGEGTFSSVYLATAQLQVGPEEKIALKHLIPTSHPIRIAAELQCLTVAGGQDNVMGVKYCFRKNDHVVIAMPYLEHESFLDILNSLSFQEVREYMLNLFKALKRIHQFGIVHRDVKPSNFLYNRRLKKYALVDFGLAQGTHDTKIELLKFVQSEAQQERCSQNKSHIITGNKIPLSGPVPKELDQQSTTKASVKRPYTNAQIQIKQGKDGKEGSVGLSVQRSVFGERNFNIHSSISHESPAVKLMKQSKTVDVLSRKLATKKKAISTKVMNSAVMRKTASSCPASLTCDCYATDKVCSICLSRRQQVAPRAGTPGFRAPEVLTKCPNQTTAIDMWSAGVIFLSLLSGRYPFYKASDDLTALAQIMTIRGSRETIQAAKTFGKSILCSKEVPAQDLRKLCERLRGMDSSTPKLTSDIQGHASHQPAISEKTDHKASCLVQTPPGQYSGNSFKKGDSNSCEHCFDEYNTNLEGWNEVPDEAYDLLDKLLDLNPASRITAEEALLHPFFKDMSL
T4 sequence (Q9UBU7 whole entry partner): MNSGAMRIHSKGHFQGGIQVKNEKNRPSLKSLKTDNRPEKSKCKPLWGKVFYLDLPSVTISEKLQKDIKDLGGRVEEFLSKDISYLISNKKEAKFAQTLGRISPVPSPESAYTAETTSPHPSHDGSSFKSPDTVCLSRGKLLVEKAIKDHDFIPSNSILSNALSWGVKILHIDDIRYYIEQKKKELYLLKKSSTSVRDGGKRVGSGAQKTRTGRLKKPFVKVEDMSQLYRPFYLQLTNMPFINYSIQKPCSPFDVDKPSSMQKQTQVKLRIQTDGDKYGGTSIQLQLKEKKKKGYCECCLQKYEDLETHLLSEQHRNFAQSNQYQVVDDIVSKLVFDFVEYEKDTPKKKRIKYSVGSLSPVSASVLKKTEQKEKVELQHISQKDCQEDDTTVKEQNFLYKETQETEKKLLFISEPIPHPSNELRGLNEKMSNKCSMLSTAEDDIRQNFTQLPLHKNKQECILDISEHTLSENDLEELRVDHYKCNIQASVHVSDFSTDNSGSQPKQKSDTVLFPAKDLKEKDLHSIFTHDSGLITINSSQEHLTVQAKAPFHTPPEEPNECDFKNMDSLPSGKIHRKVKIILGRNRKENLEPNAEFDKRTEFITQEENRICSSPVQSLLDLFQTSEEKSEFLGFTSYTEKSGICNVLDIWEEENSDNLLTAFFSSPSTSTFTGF
T7 sequence (P36507 whole entry): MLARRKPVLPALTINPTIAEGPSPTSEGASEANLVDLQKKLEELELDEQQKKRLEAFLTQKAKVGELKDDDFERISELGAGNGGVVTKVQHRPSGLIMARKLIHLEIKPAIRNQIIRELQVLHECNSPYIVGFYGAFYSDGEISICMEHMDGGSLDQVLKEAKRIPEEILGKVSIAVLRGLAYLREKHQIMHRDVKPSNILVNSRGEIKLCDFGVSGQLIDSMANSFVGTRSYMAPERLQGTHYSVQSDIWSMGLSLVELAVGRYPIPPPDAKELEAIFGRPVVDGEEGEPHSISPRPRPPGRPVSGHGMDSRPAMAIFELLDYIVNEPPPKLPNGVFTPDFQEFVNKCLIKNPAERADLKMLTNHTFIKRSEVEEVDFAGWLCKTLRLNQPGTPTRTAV
T6 sequence (P48730 whole entry): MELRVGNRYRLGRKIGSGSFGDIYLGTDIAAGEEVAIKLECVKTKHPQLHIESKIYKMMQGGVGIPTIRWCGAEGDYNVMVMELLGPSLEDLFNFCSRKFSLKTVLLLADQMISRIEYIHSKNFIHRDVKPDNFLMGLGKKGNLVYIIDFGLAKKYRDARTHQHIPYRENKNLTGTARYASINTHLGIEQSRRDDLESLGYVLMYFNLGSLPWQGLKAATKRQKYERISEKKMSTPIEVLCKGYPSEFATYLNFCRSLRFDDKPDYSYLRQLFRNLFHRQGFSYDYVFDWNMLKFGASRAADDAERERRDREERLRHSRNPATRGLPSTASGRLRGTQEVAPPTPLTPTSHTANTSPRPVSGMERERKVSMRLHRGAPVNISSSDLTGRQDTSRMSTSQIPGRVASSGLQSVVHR
T2 sequence (Q5TCX8 whole entry): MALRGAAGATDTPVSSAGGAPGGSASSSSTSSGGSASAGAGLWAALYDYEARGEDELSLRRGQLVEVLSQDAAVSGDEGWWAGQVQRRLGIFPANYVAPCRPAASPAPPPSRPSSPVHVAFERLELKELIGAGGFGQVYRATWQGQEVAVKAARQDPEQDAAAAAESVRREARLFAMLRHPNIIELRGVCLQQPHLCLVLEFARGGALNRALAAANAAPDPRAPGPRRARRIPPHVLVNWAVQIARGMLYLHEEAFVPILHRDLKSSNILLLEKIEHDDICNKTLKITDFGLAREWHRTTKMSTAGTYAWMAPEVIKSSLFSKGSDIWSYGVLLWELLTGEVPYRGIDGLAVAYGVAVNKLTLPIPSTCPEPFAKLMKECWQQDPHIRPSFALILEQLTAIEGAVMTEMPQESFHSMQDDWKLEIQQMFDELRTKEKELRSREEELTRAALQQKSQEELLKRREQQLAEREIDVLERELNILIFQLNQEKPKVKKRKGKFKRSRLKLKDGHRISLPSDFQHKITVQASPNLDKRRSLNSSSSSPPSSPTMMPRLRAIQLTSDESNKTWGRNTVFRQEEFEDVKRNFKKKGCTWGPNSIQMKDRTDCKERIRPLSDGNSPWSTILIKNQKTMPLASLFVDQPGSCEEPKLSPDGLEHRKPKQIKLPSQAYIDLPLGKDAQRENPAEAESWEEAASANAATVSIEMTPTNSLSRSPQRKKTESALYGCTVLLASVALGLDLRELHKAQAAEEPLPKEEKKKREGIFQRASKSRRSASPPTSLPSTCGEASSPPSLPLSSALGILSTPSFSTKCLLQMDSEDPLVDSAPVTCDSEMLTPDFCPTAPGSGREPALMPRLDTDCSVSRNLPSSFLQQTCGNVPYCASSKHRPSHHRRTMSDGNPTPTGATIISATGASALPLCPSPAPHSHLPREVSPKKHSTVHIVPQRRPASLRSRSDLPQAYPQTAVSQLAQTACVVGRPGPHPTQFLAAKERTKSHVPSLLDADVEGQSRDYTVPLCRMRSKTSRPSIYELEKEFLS
T1 sequence (P35968 20-1356): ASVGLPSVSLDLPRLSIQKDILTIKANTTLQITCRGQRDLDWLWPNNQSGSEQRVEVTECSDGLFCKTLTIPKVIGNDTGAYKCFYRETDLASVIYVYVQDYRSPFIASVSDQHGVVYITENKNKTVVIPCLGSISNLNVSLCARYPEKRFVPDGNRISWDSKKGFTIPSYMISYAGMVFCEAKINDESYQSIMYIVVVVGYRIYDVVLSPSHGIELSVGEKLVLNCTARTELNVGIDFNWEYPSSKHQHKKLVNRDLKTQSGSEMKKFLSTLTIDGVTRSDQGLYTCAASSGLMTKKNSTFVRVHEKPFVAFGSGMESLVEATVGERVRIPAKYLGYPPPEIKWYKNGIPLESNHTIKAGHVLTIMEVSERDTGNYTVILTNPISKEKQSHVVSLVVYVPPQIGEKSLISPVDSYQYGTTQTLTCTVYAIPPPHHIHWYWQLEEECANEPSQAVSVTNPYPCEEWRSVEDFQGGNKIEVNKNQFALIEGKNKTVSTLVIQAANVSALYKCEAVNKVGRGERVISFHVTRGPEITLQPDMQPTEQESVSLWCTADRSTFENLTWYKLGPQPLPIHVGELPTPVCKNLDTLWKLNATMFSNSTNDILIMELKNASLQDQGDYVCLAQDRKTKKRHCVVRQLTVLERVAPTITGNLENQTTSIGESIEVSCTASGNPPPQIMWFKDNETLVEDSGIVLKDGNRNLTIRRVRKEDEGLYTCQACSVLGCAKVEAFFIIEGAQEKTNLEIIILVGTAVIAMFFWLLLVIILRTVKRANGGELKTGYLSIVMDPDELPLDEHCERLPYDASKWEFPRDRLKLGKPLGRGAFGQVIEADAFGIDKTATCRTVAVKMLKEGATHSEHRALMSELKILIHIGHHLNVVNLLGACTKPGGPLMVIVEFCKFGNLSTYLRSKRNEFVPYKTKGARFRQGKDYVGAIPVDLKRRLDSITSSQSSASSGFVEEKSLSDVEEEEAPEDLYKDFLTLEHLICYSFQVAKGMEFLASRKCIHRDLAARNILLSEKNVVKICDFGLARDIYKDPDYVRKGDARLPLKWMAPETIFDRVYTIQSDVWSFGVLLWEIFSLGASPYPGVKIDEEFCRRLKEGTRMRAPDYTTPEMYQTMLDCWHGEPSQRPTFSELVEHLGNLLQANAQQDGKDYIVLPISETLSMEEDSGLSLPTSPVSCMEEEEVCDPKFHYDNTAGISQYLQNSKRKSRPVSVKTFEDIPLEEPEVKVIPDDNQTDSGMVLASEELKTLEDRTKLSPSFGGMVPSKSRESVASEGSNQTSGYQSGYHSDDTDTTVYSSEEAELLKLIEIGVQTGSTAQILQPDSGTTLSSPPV
Description for human CD19+ B cells: Compounds were prepared as 10 mM stock solutions in dimethylsulfoxide (DMSO)and were tested at 50-10-1-0.1-0.01 and 0.001 μM in the 4 assays.
Blood samples of healthy volunteers were collected at the Red Cross of Mechelen, Belgium.
Highly purified naive peripheral human B cells were separated from fresh human PBMCs on magnetic columns by positive selection using CD19 magnetic beads according to the manufacturer’s instructions (MACS Miltenyi Biotech, Leiden, The Netherlands). […] Freshly isolated human CD19+ B cells were then plated at 25 000 cells per well in a 384-well plate (Perkin Elmer, Zaventem, Belgium) in 55 μL in DMEM medium containing 10% FCS and 5 μg/mL gentamicin sulphate. After 7 days of stimulation with 0.1 μM ODN2006 (InvivoGen, Toulouse, France), supernatant was taken for analysis of IgG using the AlphaLISA human IgG kit according to the manufacturer’s instructions (Perkin Elmer, Zaventem, Belgium).

`Cc1ccc(C(=O)Nc2ccc(S(=O)(=O)O)c3cc(S(=O)(=O)O)cc(S(=O)(=O)O)c23)cc1NC(=O)c1cccc(NC(=O)Nc2cccc(C(=O)Nc3cc(C(=O)Nc4ccc(S(=O)(=O)O)c5cc(S(=O)(=O)O)cc(S(=O)(=O)O)c45)ccc3C)c2)c1` [Suramin, reference compound]: the IC50 in series [1] (Homo sapiens, RPMI-1788, mean of 4 independent measures, read-out: T-cell efficacy, MLR IC 50 (µM) Mean) was 29.8 µM; in the series with human CD19+ B cells (setting [6]), 35.2 µM. Moreover, the “Selectivity Index (SI) MLR/B-cell” value in series [1] came to 0.85. The IC50 at 48 h in [2] and in series [3] was greater than 50 µM throughout. The same molecule showed a Kd on VEGFR2 [4] of 25 µM. Besides, the remaining activity at 1 µM on VEGFR2 [5] (setting [7]) was found to be 72.7%; on VEGFR2 [5] (setting [8]), 73.6%; at VEGFR2 [5] (setting [9]), 71.8%; at VEGFR2 [5] (compound 1μM, relative to DMSO controls, read-out: % Enzyme activity at 1μM) it was 72.7%. Further, the remaining activity at 10 µM at VEGFR2 [5] (setting [10]) stood at 6.48%; on VEGFR2 [5] (setting [11]), 7.02%; on VEGFR2 [5] (setting [12]) it was 5.94%; at VEGFR2 [5] (compound 10μM, relative to DMSO controls, read-out: % Enzyme activity at 10μM) it was 6.48%.
With `COc1c(C)c2c(c(O)c1C/C=C(\C)CCC(=O)OCCN1CCOCC1)C(=O)OC2` [Mycophenolate Mofetyl], the IC50 in series [1] (mean of 4 independent measures, read-out: T-cell efficacy, MLR IC 50 (µM) Mean) stood at 0.121 µM; in the series with RPMI1788 cells, 0.487 µM; in the series with Jurkat cells, 0.552 µM; with human CD19+ B cells (mean of 4 independent measures, read-out: B-cell efficacy, B cell IC 50 (µM) Mean), 0.723 µM.
As to `NCCC(O)(P(=O)(O)O)P(=O)(O)O` [Pamidronate], at MLK4 (1 uM), the “% Enzyme Activity (relative to DMSO controls), Average” value came to 79.13%; the “% Enzyme Activity (relative to DMSO controls), Data 1” value worked out at 76.76%; the “% Enzyme Activity (relative to DMSO controls), Data 2” value is 81.5%. On MLK4 (10 uM), the “% Enzyme Activity (relative to DMSO controls), Average” value is listed as 78.77%; the “% Enzyme Activity (relative to DMSO controls), Data 1” value came to 82.48%; the “% Enzyme Activity (relative to DMSO controls), Data 2” value is listed as 75.06%.
Turning to `CC(=O)Nc1nnc(S(N)(=O)=O)s1` [Acetazolamide], on MLK4 (1 uM), the “% Enzyme Activity (relative to DMSO controls), Average” value is listed as 106.03%; the “% Enzyme Activity (relative to DMSO controls), Data 1” value is on record as 105.08%; the “% Enzyme Activity (relative to DMSO controls), Data 2” value is given as 106.98%. Besides, on MLK4 (10 uM), the “% Enzyme Activity (relative to DMSO controls), Average” value is 98.49%; the “% Enzyme Activity (relative to DMSO controls), Data 1” value was 99.01%; the “% Enzyme Activity (relative to DMSO controls), Data 2” value was 97.97%.
`Oc1cc(Cl)ccc1Oc1ccc(Cl)cc1Cl` [Triclosan, reference compound]: the IC50 worked out at 34.3 µM in [1] (Homo sapiens, RPMI-1788, read-out: T-cell efficacy, MLR IC 50 (µM) Mean) and 20.9 µM with human CD19+ B cells (setting [6]). In addition, in series [1], the “Selectivity Index (SI) MLR/B-cell” value was 1.64. Moreover, the figures for the IC50 at 48 h in series [2] and in series [3] were 27.7 µM and 26.2 µM, respectively. Also, the remaining activity at 1 µM on EPHB4 (setting [13]) was found to be 100%; on EPHB4 (setting [14]), 101%; on EPHB4 (setting [15]), 99.9%; at CDC7 (setting [16]), 70.5%; on CDC7 (setting [17]), 68.2%; on CDC7 (setting [18]) it was 72.7%. Also, the remaining activity at 1 µM on CDC7 (setting [19]) turned out to be 70.5%; at NEK2 (setting [16]) it was 99.2%; at NEK2 (setting [17]), 98.5%; on NEK2 (setting [18]) it was 99.8%; at NEK2 (setting [19]), 99.2%; on CK1d (setting [13]), 96.6%. Besides, the remaining activity at 1 µM turned out to be 94.8% on CK1d (setting [14]); 98.3% on CK1d (setting [15]); 97.6% at MAP2K2 (setting [16]); 95.3% at MAP2K2 (setting [17]); 99.8% at MAP2K2 (setting [18]); 111% at VEGFR2 [5] (setting [7]). In addition, the values for the remaining activity at 1 µM at VEGFR2 [5] (setting [8]) and on VEGFR2 [5] (setting [9]) were 108% and 114%, respectively. The remaining activity at 10 µM on EPHB4 (setting [13]) amounted to 97.4%; on EPHB4 (setting [14]) it was 97.3%; at EPHB4 (setting [15]), 97.4%; at CDC7 (setting [16]) it was 65.4%; at CDC7 (setting [17]), 71.2%; on CDC7 (setting [18]) it was 59.7%. Besides, the remaining activity at 10 µM at CDC7 (setting [20]) was 65.4%; on NEK2 (setting [16]) it was 64.6%; on NEK2 (setting [17]), 68.9%; at NEK2 (setting [18]), 60.4%; on NEK2 (setting [20]) it was 64.6%; on CK1d (setting [13]), 96.9%. Moreover, the remaining activity at 10 µM at CK1d (setting [14]) was 97.8%; on CK1d (setting [15]), 96%; on MAP2K2 (setting [16]), 96%; at MAP2K2 (setting [17]) it was 95%; on MAP2K2 (setting [18]), 97.1%; at VEGFR2 [5] (setting [10]), 101%. Further, the figures for the remaining activity at 10 µM on VEGFR2 [5] (setting [11]) and on VEGFR2 [5] (setting [12]) were 103% and 99.9%, respectively.

The term Kd denotes the free concentration of one partner at which half of the binding sites on the other are occupied at equilibrium, for simple one-to-one binding. High values mean lower affinity, low ones higher affinity.
